{"source": "paper PMC10999543", "about": "“Identification of kinase modulators as host-directed therapeutics against intracellular methicillin-resistant Staphylococcus aureus” (Frontiers in Cellular and Infection Microbiology, 2024)", "key": {"[1]": {"system": "HeLa cells", "test": "Compound screen by flow cytometry: HeLa cell count as surrogate readout of cell viability (z-scoreHeLa)", "format": "cell-based, human", "settings": "for cell count rep 1 / cell count rep 2 / cell count rep 3: PKIS compound screen raw data; for cell count rep 1 / cell count rep 2 / cell count rep 3 / z-scoreHeLa mean / z-scoreHeLa rep 1 / z-scoreHeLa rep 2 / z-scoreHeLa rep 3: HeLa cell count; for cell count rep 1 / z-scoreHeLa rep 1: replicate 1; for cell count rep 2 / z-scoreHeLa rep 2: replicate 2; for cell count rep 3 / z-scoreHeLa rep 3: replicate 3; for z-scoreHeLa mean: mean of 3 replicates", "procedure,_shortened": "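The viability surrogate was the count of fixed HeLa cells by flow cytometry, converted to z-scores against DMSO controls with values deviating two-fold excluded. Before counting, cells had been infected with MRSA for 1 h and cleared of extracellular bacteria with gentamicin. They were then exposed overnight to kinase inhibitors in triplicate.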"}, "[2]": {"system": "intracellular MRSA", "format": "cell-based, Staphylococcus aureus", "settings": "for %GFP+ rep 1 / %GFP+ rep 2 / %GFP+ rep 3: PKIS compound screen raw data; for %GFP+ rep 1 / %GFP+ rep 2 / %GFP+ rep 3 / z-scoreMRSA+ mean / z-scoreMRSA+ rep 1 / z-scoreMRSA+ rep 2 / z-scoreMRSA+ rep 3: MRSA-infected HeLa cells; for %GFP+ rep 1 / z-scoreMRSA+ rep 1: replicate 1; for %GFP+ rep 2 / z-scoreMRSA+ rep 2: replicate 2; for %GFP+ rep 3 / z-scoreMRSA+ rep 3: replicate 3; for z-scoreMRSA+ mean: mean of 3 replicates", "procedure,_shortened": "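HeLa cells were infected with GFP-expressing MRSA (mean MOI 6.8) for 1 h, treated with 30 µg/ml gentamicin for 15 min, then incubated overnight at 37°C with kinase inhibitors and 5 µg/ml gentamicin. Flow cytometry gave % GFP-positive cells, with cell count as viability. Hits were z-score ≤ -2 (infection) and ≥ -3 (count) versus DMSO.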"}, "[3]": {"settings": "Yes/No: effect without cell death"}}, "note": "Read-outs that look alike come from different tables or passages of the source.", "data": [{"smiles": "Cc1ccc(C)c(NC(=O)NCCNc2ccnc(Nc3ccc(F)cc3)n2)c1", "note": "[GSK1379878A]", "values": [{"measurement": "cell count rep 1", "setting": "[1]", "value": 23015}, {"measurement": "cell count rep 2", "setting": "[1]", "value": 22114}, {"measurement": "cell count rep 3", "setting": "[1]", "value": 18414}, {"measurement": "cell death", "setting": "[1]; Yes/No call from z-scoreHeLa", "value": "No"}, {"measurement": "z-scoreHeLa mean", "setting": "[1]; compound screen", "value": -0.62}, {"measurement": "z-scoreHeLa rep 1", "setting": "[1]; compound screen", "value": -1.22}, {"measurement": "z-scoreHeLa rep 2", "setting": "[1]; compound screen", "value": -0.54}, {"measurement": "z-scoreHeLa rep 3", "setting": "[1]; compound screen", "value": -0.10}, {"measurement": "%GFP+ rep 1", "setting": "[2]", "value": 23.2, "unit": "%"}, {"measurement": "%GFP+ rep 2", "setting": "[2]", "value": 23.5, "unit": "%"}, {"measurement": "%GFP+ rep 3", "setting": "[2]", "value": 22.5, "unit": "%"}, {"measurement": "effect", "setting": "[2]; Yes/No call from z-scoreMRSA+", "value": "No"}, {"measurement": "hit", "setting": "[2]; [3]", "value": "No"}, {"measurement": "z-scoreMRSA+ mean", "setting": "[2]; compound screen", "value": 0.88}, {"measurement": "z-scoreMRSA+ rep 1", "setting": "[2]; compound screen", "value": 1.18}, {"measurement": "z-scoreMRSA+ rep 2", "setting": "[2]; compound screen", "value": 1.12}, {"measurement": "z-scoreMRSA+ rep 3", "setting": "[2]; compound screen", "value": 0.35}]}, {"smiles": "COc1cccc(NC(=O)NCCNc2ccnc(Nc3ccc(F)cc3)n2)c1", "note": "[GSK1379879A]", "values": [{"measurement": "cell count rep 1", "setting": "[1]", "value": 4370}, {"measurement": "cell count rep 2", "setting": "[1]", "value": 3480}, {"measurement": "cell count rep 3", "setting": "[1]", "value": 4436}, {"measurement": "cell death", "setting": "[1]; Yes/No call from z-scoreHeLa", "value": "No"}, {"measurement": "z-scoreHeLa mean", "setting": "[1]; compound screen", "value": -0.38}, {"measurement": "z-scoreHeLa rep 1", "setting": "[1]; compound screen", "value": 0.0133}, {"measurement": "z-scoreHeLa rep 2", "setting": "[1]; compound screen", "value": -0.63}, {"measurement": "z-scoreHeLa rep 3", "setting": "[1]; compound screen", "value": -0.51}, {"measurement": "%GFP+ rep 1", "setting": "[2]", "value": 22.7, "unit": "%"}, {"measurement": "%GFP+ rep 2", "setting": "[2]", "value": 22.0, "unit": "%"}, {"measurement": "%GFP+ rep 3", "setting": "[2]", "value": 21.2, "unit": "%"}, {"measurement": "effect", "setting": "[2]; Yes/No call from z-scoreMRSA+", "value": "No"}, {"measurement": "hit", "setting": "[2]; [3]", "value": "No"}, {"measurement": "z-scoreMRSA+ mean", "setting": "[2]; compound screen", "value": -0.35}, {"measurement": "z-scoreMRSA+ rep 1", "setting": "[2]; compound screen", "value": -0.60}, {"measurement": "z-scoreMRSA+ rep 2", "setting": "[2]; compound screen", "value": -0.15}, {"measurement": "z-scoreMRSA+ rep 3", "setting": "[2]; compound screen", "value": -0.30}]}, {"smiles": "O=C(NCCNc1ccnc(Nc2ccc(F)cc2)n1)Nc1ccccc1F", "note": "[GSK1379880A]", "values": [{"measurement": "cell count rep 1", "setting": "[1]", "value": 4656}, {"measurement": "cell count rep 2", "setting": "[1]", "value": 4642}, {"measurement": "cell count rep 3", "setting": "[1]", "value": 6039}, {"measurement": "cell death", "setting": "[1]; Yes/No call from z-scoreHeLa", "value": "No"}, {"measurement": "z-scoreHeLa mean", "setting": "[1]; compound screen", "value": 0.33}, {"measurement": "z-scoreHeLa rep 1", "setting": "[1]; compound screen", "value": 0.22}, {"measurement": "z-scoreHeLa rep 2", "setting": "[1]; compound screen", "value": 0.26}, {"measurement": "z-scoreHeLa rep 3", "setting": "[1]; compound screen", "value": 0.51}, {"measurement": "%GFP+ rep 1", "setting": "[2]", "value": 25.7, "unit": "%"}, {"measurement": "%GFP+ rep 2", "setting": "[2]", "value": 21.6, "unit": "%"}, {"measurement": "%GFP+ rep 3", "setting": "[2]", "value": 22.7, "unit": "%"}, {"measurement": "effect", "setting": "[2]; Yes/No call from z-scoreMRSA+", "value": "No"}, {"measurement": "hit", "setting": "[2]; [3]", "value": "No"}, {"measurement": "z-scoreMRSA+ mean", "setting": "[2]; compound screen", "value": 0.00131}, {"measurement": "z-scoreMRSA+ rep 1", "setting": "[2]; compound screen", "value": 0.10}, {"measurement": "z-scoreMRSA+ rep 2", "setting": "[2]; compound screen", "value": -0.25}, {"measurement": "z-scoreMRSA+ rep 3", "setting": "[2]; compound screen", "value": 0.15}]}, {"smiles": "COc1ccc(Nc2nccc(NCCNC(=O)Nc3ccccc3F)n2)cc1", "note": "[GSK1379901A]", "values": [{"measurement": "cell count rep 1", "setting": "[1]", "value": 4960}, {"measurement": "cell count rep 2", "setting": "[1]", "value": 3999}, {"measurement": "cell count rep 3", "setting": "[1]", "value": 4730}, {"measurement": "cell death", "setting": "[1]; Yes/No call from z-scoreHeLa", "value": "No"}, {"measurement": "z-scoreHeLa mean", "setting": "[1]; compound screen", "value": -0.04}, {"measurement": "z-scoreHeLa rep 1", "setting": "[1]; compound screen", "value": 0.44}, {"measurement": "z-scoreHeLa rep 2", "setting": "[1]; compound screen", "value": -0.23}, {"measurement": "z-scoreHeLa rep 3", "setting": "[1]; compound screen", "value": -0.32}, {"measurement": "%GFP+ rep 1", "setting": "[2]", "value": 25.4, "unit": "%"}, {"measurement": "%GFP+ rep 2", "setting": "[2]", "value": 21.0, "unit": "%"}, {"measurement": "%GFP+ rep 3", "setting": "[2]", "value": 21.4, "unit": "%"}, {"measurement": "effect", "setting": "[2]; Yes/No call from z-scoreMRSA+", "value": "No"}, {"measurement": "hit", "setting": "[2]; [3]", "value": "No"}, {"measurement": "z-scoreMRSA+ mean", "setting": "[2]; compound screen", "value": -0.20}, {"measurement": "z-scoreMRSA+ rep 1", "setting": "[2]; compound screen", "value": 0.03}, {"measurement": "z-scoreMRSA+ rep 2", "setting": "[2]; compound screen", "value": -0.39}, {"measurement": "z-scoreMRSA+ rep 3", "setting": "[2]; compound screen", "value": -0.24}]}, {"smiles": "Cc1ccc(NC(=O)c2ccc(Cl)cc2)cc1-c1ccc(C(=O)Nc2ccncc2)cc1", "note": "[GSK1398467A]", "values": [{"measurement": "cell count rep 1", "setting": "[1]", "value": 10600}, {"measurement": "cell count rep 2", "setting": "[1]", "value": 12964}, {"measurement": "cell count rep 3", "setting": "[1]", "value": 20345}, {"measurement": "z-scoreHeLa mean", "setting": "[1]; PKIS compound screen", "value": -2.91}, {"measurement": "z-scoreHeLa rep 1", "setting": "[1]; PKIS compound screen", "value": -1.44}, {"measurement": "z-scoreHeLa rep 2", "setting": "[1]; PKIS compound screen", "value": -4.07}, {"measurement": "z-scoreHeLa rep 3", "setting": "[1]; PKIS compound screen", "value": -3.21}, {"measurement": "cell death", "setting": "[1]; PKIS compound screen, Yes/No call on z-scoreHeLa", "value": "No"}, {"measurement": "%GFP+ rep 1", "setting": "[2]", "value": 17.7, "unit": "%"}, {"measurement": "%GFP+ rep 2", "setting": "[2]", "value": 18.1, "unit": "%"}, {"measurement": "%GFP+ rep 3", "setting": "[2]", "value": 16.2, "unit": "%"}, {"measurement": "z-scoreMRSA+ mean", "setting": "[2]; PKIS compound screen", "value": -0.42}, {"measurement": "z-scoreMRSA+ rep 1", "setting": "[2]; PKIS compound screen", "value": -0.05}, {"measurement": "z-scoreMRSA+ rep 2", "setting": "[2]; PKIS compound screen", "value": -0.13}, {"measurement": "z-scoreMRSA+ rep 3", "setting": "[2]; PKIS compound screen", "value": -1.09}, {"measurement": "hit", "setting": "[2]; PKIS compound screen, Yes/No call (effect without cell death)", "value": "No"}, {"measurement": "effect", "setting": "[2]; PKIS compound screen, Yes/No call on z-scoreMRSA+", "value": "No"}]}]}
